Reference: US20230151025A1, “SUBSTITUTED THIAZOLOPYRIDINES, SALTS THEREOF AND THEIR USE AS HERBICIDALLY ACTIVE SUBSTANCES” (Bayer Aktiengesellschaft, priority 2020, published 2023)

Legend:
Assay type in all cases: in vivo
[1] = test system: Echinochloa crus-galli (ECHCG); test: Herbicidal post-emergence action (D), 320 g/ha; conditions: ca. 3 weeks
Procedure, shortened: (§1)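 Scores are percent visual control, where 100% means plants died and 0% means no difference from untreated, taken roughly 3 weeks after a single foliar application at 600 l water/ha with 0.5% additive to single-leaf-stage greenhouse plants grown in sandy loam.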

[2] = test system: Veronica persica (VERPE); test: Herbicidal post-emergence action (D), 320 g/ha; conditions: ca. 3 weeks
Procedure, shortened: as §1

[3] = test system: Setaria viridis (SETVI); test: Herbicidal post-emergence action (D), 320 g/ha; conditions: ca. 3 weeks
Procedure, shortened: as §1

[4] = test system: Abutilon theophrasti (ABUTH); test: Herbicidal post-emergence action (D), 320 g/ha; conditions: ca. 3 weeks
Procedure, shortened: as §1

[5] = test system: Polygonum convolvulus (POLCO); test: Herbicidal post-emergence action (D), 320 g/ha; conditions: ca. 3 weeks
Procedure, shortened: as §1

[6] = test system: Viola tricolor (VIOTR); test: Herbicidal post-emergence action (D), 320 g/ha; conditions: ca. 3 weeks
Procedure, shortened: as §1

[7] = test system: Lolium rigidum (LOLRI); test: Herbicidal post-emergence action (D), 320 g/ha; conditions: ca. 3 weeks
Procedure, shortened: as §1

[8] = test system: Alopecurus myosuroides (ALOMY); test: Herbicidal post-emergence action (D), 320 g/ha; conditions: ca. 3 weeks
Procedure, shortened: as §1

[9] = test system: Echinochloa crus-galli (ECHCG); test: Herbicidal pre-emergence action (C), 320 g/ha; conditions: ca. 3 weeks
Procedure, shortened: (§2)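 Seeds sown in sandy loam; WP or EC formulations sprayed on covering soil pre-emergence at 320 g/ha in 600 l water/ha with 0.5% additive. Greenhouse culture; damage scored visually after ca. 3 weeks versus untreated controls (0% = as control, 100% = plants dead).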

[10] = test system: Veronica persica (VERPE); test: Herbicidal pre-emergence action (C), 320 g/ha; conditions: ca. 3 weeks
Procedure, shortened: as §2

[11] = test system: Matricaria inodora (MATIN); test: Herbicidal pre-emergence action (C), 320 g/ha; conditions: ca. 3 weeks
Procedure, shortened: as §2

[12] = test system: Setaria viridis (SETVI); test: Herbicidal pre-emergence action (C), 320 g/ha; conditions: ca. 3 weeks
Procedure, shortened: as §2

[13] = test system: Amaranthus retroflexus (AMARE); test: Herbicidal pre-emergence action (C), 320 g/ha; conditions: ca. 3 weeks
Procedure, shortened: as §2

[14] = test system: Abutilon theophrasti (ABUTH); test: Herbicidal pre-emergence action (C), 320 g/ha; conditions: ca. 3 weeks
Procedure, shortened: as §2

[15] = test system: Polygonum convolvulus (POLCO); test: Herbicidal pre-emergence action (C), 320 g/ha; conditions: ca. 3 weeks
Procedure, shortened: as §2

[16] = test system: Viola tricolor (VIOTR); test: Herbicidal pre-emergence action (C), 320 g/ha; conditions: ca. 3 weeks
Procedure, shortened: as §2

[17] = test system: Lolium rigidum (LOLRI); test: Herbicidal pre-emergence action (C), 320 g/ha; conditions: ca. 3 weeks
Procedure, shortened: as §2

[18] = test system: Alopecurus myosuroides (ALOMY); test: Herbicidal pre-emergence action (C), 320 g/ha; conditions: ca. 3 weeks
Procedure, shortened: as §2

[19] = test system: Avena fatua; test: Herbicidal pre-emergence action (C), 320 g/ha; conditions: ca. 3 weeks
Procedure, shortened: (§3)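 Weed and crop seeds sown in sandy loam; WP or EC formulations applied pre-emergence to the soil surface as aqueous suspension/emulsion with 0.5% additive at 600 l water/ha. Greenhouse-grown under optimum conditions; damage visually scored after ca. 3 weeks versus untreated controls (0% = as control, 100% = plants dead).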

[20] = test system: Avena fatua; test: Herbicidal post-emergence action (D), 320 g/ha; conditions: ca. 3 weeks
Source text: (§4) Seeds of mono- and dicotyledonous weed plants and crop plants were sown, in plastic or organic planting pots, in sandy loam, covered with soil and grown in a greenhouse under controlled growth conditions. 2 to 3 weeks after sowing, the test plants were sprayed in the single-leaf stage. The compounds according to the invention, formulated in form of wettable powders (WP) or as emulsifiable concentrates (EC), were sprayed onto the green plant parts as aqueous suspension or emulsion, with the addition of 0.5% of an additive, at an application rate of 600 l of water/ha (converted). The test plants were placed in the greenhouse for ca. 3 weeks under optimum growth conditions, and then the effect of the preparations was assessed visually in comparison with untreated controls (herbicidal effect in percent (%): 100% effect=plants have died off, 0% effect=as control plants).
(§5) Tables D1 to D13 below show the effects of selected compounds of the general formula (I) according to table 1 on various harmful plants and an application rate corresponding to 320 g/ha obtained by the experimental procedure mentioned above.

[21] = test system: Echinochloa crus-galli (ECHCG); test: Herbicidal pre-emergence action (A), 1280 g/ha; conditions: visual grading after ca. 3 weeks vs untreated controls, 100% = plants have died off, 0% = as control plants
Procedure, shortened: (§6)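 Greenhouse pre-emergence test: formulated compound (WP/EC plus 0.5% additive, 600 l/ha water) applied to the soil over sown seeds in sandy loam. Percent herbicidal effect was rated by eye after ca. 3 weeks relative to untreated pots.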

[22] = test system: Veronica persica (VERPE); test: Herbicidal pre-emergence action (A), 1280 g/ha; conditions: visual grading after ca. 3 weeks vs untreated controls
Procedure, shortened: as §6

[23] = test system: Matricaria inodora (MATIN); test: Herbicidal pre-emergence action (A), 1280 g/ha; conditions: visual grading after ca. 3 weeks vs untreated controls
Procedure, shortened: as §6

[24] = test system: Kochia scoparia (KCHSC; Bassia scoparia); test: Herbicidal pre-emergence action (A), 1280 g/ha; conditions: visual grading after ca. 3 weeks vs untreated controls
Procedure, shortened: as §6

[25] = test system: Setaria viridis (SETVI); test: Herbicidal pre-emergence action (A), 1280 g/ha; conditions: visual grading after ca. 3 weeks vs untreated controls
Procedure, shortened: as §6

[26] = test system: Stellaria media (STEME); test: Herbicidal pre-emergence action (A), 1280 g/ha; conditions: visual grading after ca. 3 weeks vs untreated controls
Procedure, shortened: as §6

[27] = test system: Poa annua (POAAN); test: Herbicidal pre-emergence action (A), 1280 g/ha; conditions: visual grading after ca. 3 weeks vs untreated controls, 100% = plants have died off, 0% = as control plants
Procedure, shortened: as §6

[28] = test system: Lolium rigidum (LOLRI); test: Herbicidal pre-emergence action (A), 1280 g/ha; conditions: visual grading after ca. 3 weeks vs untreated controls, 100% = plants have died off, 0% = as control plants
Procedure, shortened: as §6

[29] = test system: Alopecurus myosuroides (ALOMY); test: Herbicidal pre-emergence action (A), 1280 g/ha; conditions: visual grading after ca. 3 weeks vs untreated controls, 100% = plants have died off, 0% = as control plants
Procedure, shortened: as §6

[30] = test system: Echinochloa crus-galli (ECHCG); test: Herbicidal post-emergence action (B), 1280 g/ha; conditions: rated visually after about 3 weeks vs untreated controls
Procedure, shortened: (§7)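 Foliar post-emergence treatment of one-leaf-stage weeds with WP or EC preparations in water plus 0.5% additive, sprayed at 600 L/ha. Visual efficacy was assessed after roughly 3 weeks relative to untreated controls, 100% being complete kill.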

[31] = test system: Veronica persica (VERPE); test: Herbicidal post-emergence action (B), 1280 g/ha
Procedure, shortened: as §7

[32] = test system: Kochia scoparia (KCHSC; Bassia scoparia); test: Herbicidal post-emergence action (B), 1280 g/ha
Procedure, shortened: as §7

[33] = test system: Stellaria media (STEME); test: Herbicidal post-emergence action (B), 1280 g/ha
Procedure, shortened: as §7

[34] = test system: Amaranthus retroflexus (AMARE); test: Herbicidal post-emergence action (B), 1280 g/ha; conditions: rated visually after about 3 weeks vs untreated controls
Procedure, shortened: as §7

[35] = test system: Abutilon theophrasti (ABUTH); test: Herbicidal post-emergence action (B), 1280 g/ha; conditions: rated visually after about 3 weeks vs untreated controls
Procedure, shortened: as §7

[36] = test system: Poa annua (POAAN); test: Herbicidal post-emergence action (B), 1280 g/ha; conditions: rated visually after about 3 weeks vs untreated controls
Procedure, shortened: as §7

[37] = test system: Alopecurus myosuroides (ALOMY); test: Herbicidal post-emergence action (B), 1280 g/ha; conditions: rated visually after about 3 weeks vs untreated controls
Procedure, shortened: as §7

[38] = test system: Amaranthus retroflexus (AMARE); test: Herbicidal post-emergence action (D), 320 g/ha; conditions: ca. 3 weeks
Procedure, shortened: as §1

[39] = test system: Digitaria sanguinalis (DIGSA); test: Herbicidal pre-emergence action (C), 320 g/ha; conditions: ca. 3 weeks
Procedure, shortened: as §3

[40] = test system: Digitaria sanguinalis (DIGSA); test: Herbicidal post-emergence action (D), 320 g/ha; conditions: ca. 3 weeks
Source text: as §4, §5

| Compound | herbicidal effect ECHCG [1] | herbicidal effect VERPE [2] | herbicidal effect SETVI [3] | herbicidal effect ABUTH [4] | herbicidal effect POLCO [5] | herbicidal effect VIOTR [6] | herbicidal effect ALOMY [8] | herbicidal effect ECHCG [9] | herbicidal effect VERPE [10] | herbicidal effect MATIN [11] | herbicidal effect SETVI [12] | herbicidal effect AMARE [13] | herbicidal effect ABUTH [14] | herbicidal effect POLCO [15] | herbicidal effect LOLRI [17] | herbicidal effect ALOMY [18] | herbicidal effect AVEFA [19] | herbicidal effect AVEFA [20] | also measured |
| --- | --- | --- | --- | --- | --- | --- | --- | --- | --- | --- | --- | --- | --- | --- | --- | --- | --- | --- | --- |
| Fc1cccc(F)c1-c1nc2ncsc2cc1Cl [Example I-087] | 90% | 90% | 90% | 80% | 90% | 80% | 90% | 100% | 90% | 90% | 100% | 80% | 90% | 90% | 100% | 100% | 80% | 80% | herbicidal effect LOLRI [7]: 80%; herbicidal effect VIOTR [16]: 80% |
| Cc1ccsc1-c1nc2ncsc2cc1Cl [Example I-192] | 100% | 80% | 80% |  |  |  | 90% | 100% | 90% |  | 100% | 100% |  |  | 100% | 100% |  | 80% | ECHCG, herbicidal effect in percent (%) [21]: 100%; herbicidal effect VERPE [22]: 90%; herbicidal effect MATIN [23]: 100%; herbicidal effect KCHSC [24]: 100%; herbicidal effect SETVI [25]: 100%; herbicidal effect STEME [26]: 100%; POAAN, herbicidal effect in percent (%) [27]: 100%; LOLRI, herbicidal effect in percent (%) [28]: 100%; ALOMY, herbicidal effect in percent (%) [29]: 100%; herbicidal activity ECHCG [30]: 100%; herbicidal effect VERPE [31]: 100%; herbicidal effect KCHSC [32]: 90%; herbicidal effect STEME [33]: 90%; herbicidal activity AMARE [34]: 100%; herbicidal activity ABUTH [35]: 100%; herbicidal activity POAAN [36]: 90%; herbicidal activity ALOMY [37]: 100% |
| Fc1ccc(-c2nc3ncsc3cc2Cl)c(F)c1 [Example I-127] | 90% | 80% | 90% | 80% | 90% | 80% | 90% | 100% | 90% | 80% | 100% | 80% |  |  | 80% | 90% | 90% |  |  |
| Cc1ccccc1-c1nc2ncsc2cc1C [Example I-018] |  | 80% | 80% |  | 100% | 90% | 90% | 100% | 90% | 90% | 100% | 90% | 80% | 90% | 100% | 100% |  |  | herbicidal effect AMARE [38]: 90%; herbicidal effect DIGSA [39]: 100%; herbicidal effect DIGSA [40]: 90% |
